For one test, the target named is c-Kit kinase (Homo sapiens, UniProt P10721). In words: c-Kit kinase biochemical activity assay (AlphaScreen, biotin-(E4Y)10 phosphorylation). Particulars: 100 μM ATP; read-out: Biochemical Inhibition IC50 Kit. As for the experimental part:
Assays for biochemical and cell based activity are known in the art, for example, U.S. Patent Application Publication Number 2009/0076046, the disclosure of which is hereby incorporated by reference as it relates to such assays. For example, in one assay the biochemical activity IC50 values are determined with respect to inhibition of c-Kit kinase activity, where inhibition of phosphorylation of a peptide substrate is measured as a function of compound concentration. Compounds to be tested are dissolved in DMSO to a concentration of 20 mM. These are diluted 30 μL into 120 μL of DMSO (4 mM) and 1 μL is added to an assay plate. These are then serially diluted […] (50 μL to 100 μL DMSO) for a total of 8 points. Plates are prepared such that each kinase reaction is 20 μL in 1× kinase buffer (25 mM HEPES, pH 7.5, 2 mM MgCl2, 2 mM MnCl2, 0.01% Tween-20, 1 mM DTT, 0.01% BSA), 5% DMSO and 100 μM ATP. Substrate is 30 nM biotin-(E4Y) 10 (Millipore). C-kit kinase (obtained from Millipore (#14-559) or is prepared as described in U.S. Patent Application Publication Number 2009/0076046, the disclosure of which is hereby incorporated by reference as it relates to this assay) is at 0.75 ng per sample. After incubation of the kinase reaction for 1 hour at room temperature, 5 μL of donor beads (Streptavidin coated beads (Perkin Elmer Life Science) final concentration 10 μg/mL) in stop buffer (25 mM Hepes pH 7.5, 100 mM EDTA, 0.01% BSA) is added, the sample is mixed and incubated for 20 minutes at room temperature before adding 5 μL of acceptor beads (PY20 coated beads (Perkin Elmer Life Science) final concentration 10 μg/mL) in stop buffer. The samples are incubated for 60 minutes at room temperature and the signal per well is read on Envision reader. Phosphorylated substrate results in binding of the PY20 antibody and association of the donor and acceptor beads such that signal correlates with kinase activity. The signal vs. compound concentration is used to determine the IC50.

A further test addresses CYP3A4(BQ) (Homo sapiens, UniProt P08684). In words: CYP3A4(BQ) inhibition. In kind it is in vitro ADME. The note with it: CYP3A4, substrate BQ; read-out: Cyp IC50 3A4(BQ). The method, then:
CYP (Cytochrome P450) enzymes are the major drug metabolizing enzymes present in the liver. The inhibition of CYP enzyme activity (IC50) for each of CYP1A2, CYP2C19, CYP2C9, CYP2D6, CYP3A4(BFC) and CYP3A4(BQ) is determined for compounds, where inhibition of metabolism of a known substrate leads to a decrease in the fluorescence of the metabolized product. The fluorescence of the product is monitored as a function of compound concentration. Compounds are dissolved in DMSO to a concentration of 100 mM. These are diluted 1 μL into 82 μL of acetonitrile. An 11 μL aliquot of this solution is then added to 204 μL of cofactor mix (1.3% NADPH Regeneration system Solution A, 1.04% NADPH Regeneration system Solution B from BD Biosciences, 5% acetonitrile and 0.05% DMSO). These are then serially diluted 1:1 (160 μL to 160 μL co-factor mix) for a total of 10 points. A 10 μL aliquot of this final mixture is dispensed into 384 well assay plates and incubated for 10 minutes at 37° C. […] Assay plates are incubated at 37° C. (CYP1A2-15 min; CYP2C9-45 min; CYP2C19, 2D6 and 3A4-30 min) and read in a Tecan Safire 2 plate reader (CYP1A2, 2C19 and 3A4 409 ex/460 em; CYP2C9 and 2D6 409 ex/530 em). The signal versus compound concentration is used to determine the IC50. The enzymes and substrates for this assay are obtained from BD Biosciences.

c-Kit kinase, sequence (P10721 26-976): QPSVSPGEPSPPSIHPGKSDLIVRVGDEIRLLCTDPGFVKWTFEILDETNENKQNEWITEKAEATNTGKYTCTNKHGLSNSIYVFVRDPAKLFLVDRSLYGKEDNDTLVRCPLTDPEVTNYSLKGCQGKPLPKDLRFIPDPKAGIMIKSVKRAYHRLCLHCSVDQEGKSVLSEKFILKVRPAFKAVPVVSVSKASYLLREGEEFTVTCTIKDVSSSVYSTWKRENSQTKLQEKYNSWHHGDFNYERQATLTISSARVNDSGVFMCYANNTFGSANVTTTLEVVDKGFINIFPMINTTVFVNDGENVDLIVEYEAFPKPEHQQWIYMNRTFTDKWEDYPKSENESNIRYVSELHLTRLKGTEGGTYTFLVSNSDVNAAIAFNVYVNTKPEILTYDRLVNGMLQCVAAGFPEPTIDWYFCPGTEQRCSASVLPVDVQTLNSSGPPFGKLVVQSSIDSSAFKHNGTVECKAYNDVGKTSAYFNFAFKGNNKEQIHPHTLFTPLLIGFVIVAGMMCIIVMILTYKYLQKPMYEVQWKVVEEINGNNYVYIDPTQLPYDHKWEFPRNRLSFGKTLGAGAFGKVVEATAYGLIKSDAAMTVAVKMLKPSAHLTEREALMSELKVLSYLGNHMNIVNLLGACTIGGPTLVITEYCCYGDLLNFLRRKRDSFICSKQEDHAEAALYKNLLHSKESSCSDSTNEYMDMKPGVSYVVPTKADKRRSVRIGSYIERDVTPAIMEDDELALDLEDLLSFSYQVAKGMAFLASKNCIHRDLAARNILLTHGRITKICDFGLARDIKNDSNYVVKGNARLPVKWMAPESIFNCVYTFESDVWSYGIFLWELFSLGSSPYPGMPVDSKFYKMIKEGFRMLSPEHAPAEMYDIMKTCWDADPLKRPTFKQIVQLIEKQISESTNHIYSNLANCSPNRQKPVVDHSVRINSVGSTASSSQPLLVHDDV
CYP3A4(BQ), sequence (P08684 whole entry): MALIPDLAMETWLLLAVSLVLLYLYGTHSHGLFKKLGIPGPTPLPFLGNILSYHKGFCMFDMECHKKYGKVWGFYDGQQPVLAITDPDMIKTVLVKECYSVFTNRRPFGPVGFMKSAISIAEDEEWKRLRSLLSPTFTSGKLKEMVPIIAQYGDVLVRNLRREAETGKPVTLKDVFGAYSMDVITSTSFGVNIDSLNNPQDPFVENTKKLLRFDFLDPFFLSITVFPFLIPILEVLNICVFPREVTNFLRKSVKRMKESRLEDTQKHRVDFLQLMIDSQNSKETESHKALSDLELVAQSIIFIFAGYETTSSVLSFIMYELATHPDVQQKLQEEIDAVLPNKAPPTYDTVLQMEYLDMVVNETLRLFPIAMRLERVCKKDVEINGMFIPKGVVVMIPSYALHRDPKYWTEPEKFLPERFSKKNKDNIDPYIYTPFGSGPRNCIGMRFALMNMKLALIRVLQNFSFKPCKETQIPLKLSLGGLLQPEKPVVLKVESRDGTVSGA

The IC50 is the point on the concentration scale where inhibition reaches its midpoint. For `COc1ccc(Nc2ccc(C(=O)c3c[nH]c4ncnc(N5CCCCC5)c34)c(F)n2)cn1` [Compound P-4069, [2-fluoro-6-[(6-methoxy-3-pyridyl)amino]-3-pyridyl]-[4-(1-piperidyl)-7H-pyrrolo[2,3-d]pyrimidin-5-yl]methanone], the values for the IC50 on c-Kit kinase and on CYP3A4(BQ) were over 1000 nM and over 10 µM, respectively.

Take `COc1ccc(Nc2ccc(C(=O)c3c[nH]c4ncnc(N5CCOCC5)c34)c(F)n2)cn1` [Compound P-4070, [2-fluoro-6-[(6-methoxy-3-pyridyl)amino]-3-pyridyl]-(4-morpholino-7H-pyrrolo[2,3-d]pyrimidin-5-yl)methanone]: the IC50 at c-Kit kinase was over 1000 nM; on CYP3A4(BQ), over 10 µM.

For `COc1ccc(Nc2ccc(C(=O)c3c[nH]c4ncnc(NCc5ccc(C(F)(F)F)nc5)c34)c(F)n2)cn1` [Compound P-4071, [2-fluoro-6-[(6-methoxy-3-pyridyl)amino]-3-pyridyl]-[4-[[6-(trifluoromethyl)-3-pyridyl]methylamino]-7H-pyrrolo[2,3-d]pyrimidin-5-yl]methanone], the IC50 at c-Kit kinase is over 1000 nM; on CYP3A4(BQ), over 10 µM.

As for `COc1ccc(Nc2ccc(C(=O)c3c[nH]c4ncnc(N[C@@H](C)c5ccc(F)cc5)c34)c(F)n2)cn1` [Compound P-4072, [2-fluoro-6-[(6-methoxy-3-pyridyl)amino]-3-pyridyl]-[4-[[(1S)-1-(4-fluorophenyl)ethyl]amino]-7H-pyrrolo[2,3-d]pyrimidin-5-yl]methanone], the IC50 on c-Kit kinase is over 1000 nM; on CYP3A4(BQ) it was over 10 µM.

Regarding `COc1ccc(Nc2ccc(C(=O)c3c[nH]c4ncnc(NCC5CCCO5)c34)c(F)n2)cn1` (stereo not shown) [Compound P-4073, [2-fluoro-6-[(6-methoxy-3-pyridyl)amino]-3-pyridyl]-[4-(tetrahydrofuran-2-ylmethylamino)-7H-pyrrolo[2,3-d]pyrimidin-5-yl]methanone], the IC50 on c-Kit kinase was under 1000 nM; on CYP3A4(BQ), over 10 µM.

With `CCN1CCC(Nc2ncnc3[nH]cc(C(=O)c4ccc(Nc5ccc(OC)nc5)nc4F)c23)CC1` [Compound P-4074, [4-[(1-ethyl-4-piperidyl)amino]-7H-pyrrolo[2,3-d]pyrimidin-5-yl]-[2-fluoro-6-[(6-methoxy-3-pyridyl)amino]-3-pyridyl]methanone], the IC50 was under 1000 nM at c-Kit kinase and over 10 µM at CYP3A4(BQ).

Take `COc1ccc(Nc2ccc(C(=O)c3c[nH]c4ncnc(NC5CCCC5)c34)c(F)n2)cn1` [Compound P-4075, [4-(cyclopentylamino)-7H-pyrrolo[2,3-d]pyrimidin-5-yl]-[2-fluoro-6-[(6-methoxy-3-pyridyl)amino]-3-pyridyl]methanone]: the IC50 at c-Kit kinase was under 1000 nM; at CYP3A4(BQ) it was over 10 µM.

Take `COc1ccc(Nc2ccc(C(=O)c3c[nH]c4ncnc(NC5CCC5)c34)c(F)n2)cn1` [Compound P-4076, [4-(cyclobutylamino)-7H-pyrrolo[2,3-d]pyrimidin-5-yl]-[2-fluoro-6-[(6-methoxy-3-pyridyl)amino]-3-pyridyl]methanone]: the values for the IC50 at c-Kit kinase and on CYP3A4(BQ) were under 100 nM and over 5 µM, respectively.

On to `CCC(CC)Nc1ncnc2[nH]cc(C(=O)c3ccc(Nc4ccc(OC)nc4)nc3F)c12` [Compound P-4077, [4-(1-ethylpropylamino)-7H-pyrrolo[2,3-d]pyrimidin-5-yl]-[2-fluoro-6-[(6-methoxy-3-pyridyl)amino]-3-pyridyl]methanone], for which the IC50 at c-Kit kinase was under 1000 nM; at CYP3A4(BQ), over 10 µM.

With `CCC(C)Nc1ncnc2[nH]cc(C(=O)c3ccc(Nc4ccc(OC)nc4)nc3F)c12` (stereo not shown) [Compound P-4078, [2-fluoro-6-[(6-methoxy-3-pyridyl)amino]-3-pyridyl]-[4-(sec-butylamino)-7H-pyrrolo[2,3-d]pyrimidin-5-yl]methanone], the 50% inhibitory concentration (IC50) is under 1000 nM on c-Kit kinase and over 10 µM at CYP3A4(BQ).

Consider `COCCCNc1ncnc2[nH]cc(C(=O)c3ccc(Nc4ccc(OC)nc4)nc3F)c12` [Compound P-4079, [2-fluoro-6-[(6-methoxy-3-pyridyl)amino]-3-pyridyl]-[4-(3-methoxypropylamino)-7H-pyrrolo[2,3-d]pyrimidin-5-yl]methanone], for which the IC50 was under 100 nM on c-Kit kinase and over 10 µM at CYP3A4(BQ).

On to `CCCCNc1ncnc2[nH]cc(C(=O)c3ccc(Nc4ccc(OC)nc4)nc3F)c12` [Compound P-4080, [4-(butylamino)-7H-pyrrolo[2,3-d]pyrimidin-5-yl]-[2-fluoro-6-[(6-methoxy-3-pyridyl)amino]-3-pyridyl]methanone], for which the IC50 on c-Kit kinase is under 1000 nM; at CYP3A4(BQ) it was over 10 µM.

For `CCNc1ncnc2[nH]cc(C(=O)c3ccc(Nc4ccc(OC)nc4)nc3F)c12` [Compound P-4081, [4-(ethylamino)-7H-pyrrolo[2,3-d]pyrimidin-5-yl]-[2-fluoro-6-[(6-methoxy-3-pyridyl)amino]-3-pyridyl]methanone], the IC50 at c-Kit kinase is under 100 nM; at CYP3A4(BQ) it was over 10 µM.

With `COc1ccc(Nc2ccc(C(=O)c3c[nH]c4ncnc(NC5CCCCC5)c34)c(F)n2)cn1` [Compound P-4082, [4-(cyclohexylamino)-7H-pyrrolo[2,3-d]pyrimidin-5-yl]-[2-fluoro-6-[(6-methoxy-3-pyridyl)amino]-3-pyridyl]methanone], the IC50 is under 1000 nM at c-Kit kinase and 5 to 10 µM at CYP3A4(BQ).

Take `CNc1ncnc2[nH]cc(C(=O)c3ccc(Nc4ccc(OC)nc4)nc3F)c12` [Compound P-4083, [2-fluoro-6-[(6-methoxy-3-pyridyl)amino]-3-pyridyl]-[4-(methylamino)-7H-pyrrolo[2,3-d]pyrimidin-5-yl]methanone]: the IC50 on c-Kit kinase was under 100 nM; at CYP3A4(BQ), over 10 µM.

For the compound `COc1ccc(Nc2ccc(C(=O)c3c[nH]c4ncnc(NCC(F)(F)F)c34)c(F)n2)cn1` [Compound P-4084, [2-fluoro-6-[(6-methoxy-3-pyridyl)amino]-3-pyridyl]-[4-(2,2,2-trifluoroethylamino)-7H-pyrrolo[2,3-d]pyrimidin-5-yl]methanone], the IC50 on c-Kit kinase is under 100 nM; at CYP3A4(BQ) it was over 10 µM.

In the case of `O=C(c1ccc(NC2CCC(F)(F)CC2)nc1)c1c[nH]c2ncnc(NCC(F)(F)F)c12` [Compound P-4087, [6-[(4,4-difluorocyclohexyl)amino]-3-pyridyl]-[4-(2,2,2-trifluoroethylamino)-7H-pyrrolo[2,3-d]pyrimidin-5-yl]methanone], the IC50 is under 100 nM on c-Kit kinase and over 10 µM at CYP3A4(BQ).

As to `O=C(c1ccc(NC2CCC(F)(F)CC2)nc1)c1c[nH]c2ncnc(NC3CC3)c12` [Compound P-4088, [4-(cyclopropylamino)-7H-pyrrolo[2,3-d]pyrimidin-5-yl]-[6-[(4,4-difluorocyclohexyl)amino]-3-pyridyl]methanone], the half-maximal inhibitory concentration (IC50) at c-Kit kinase was under 1000 nM; on CYP3A4(BQ), over 10 µM.

`CNc1ncnc2[nH]cc(C(=O)c3ccc(NC4CCC(F)(F)CC4)nc3)c12` [Compound P-4089, [6-[(4,4-difluorocyclohexyl)amino]-3-pyridyl]-[4-(methylamino)-7H-pyrrolo[2,3-d]pyrimidin-5-yl]methanone]: the IC50 was under 1000 nM on c-Kit kinase and over 10 µM at CYP3A4(BQ).

In the case of `O=C(c1ccc(Nc2ccc(C3CC3)nc2)nc1F)c1c[nH]c2ncnc(NCC(F)(F)F)c12` [Compound P-4090, [6-[(6-cyclopropyl-3-pyridyl)amino]-2-fluoro-3-pyridyl]-[4-(2,2,2-trifluoroethylamino)-7H-pyrrolo[2,3-d]pyrimidin-5-yl]methanone], the IC50 at c-Kit kinase is under 1000 nM; on CYP3A4(BQ), over 10 µM.
